This note sets out measurements from patent publication US20240199546A1, “INHIBITORS OF SOLUTE CARRIER FAMILY 6A MEMBER 19 (SLC6A19) AND METHODS OF USE THEREOF” (Maze Therapeutics, Inc., priority 2022, published 2024).

SMILES strings stand for the structures.

For test [1], the target named is T1, human SLC6A19 and TMEM27 (Homo sapiens, UniProt Q695T7).
T1 construct: expressed in transfected cells
T1 sequence (Q695T7 1-634): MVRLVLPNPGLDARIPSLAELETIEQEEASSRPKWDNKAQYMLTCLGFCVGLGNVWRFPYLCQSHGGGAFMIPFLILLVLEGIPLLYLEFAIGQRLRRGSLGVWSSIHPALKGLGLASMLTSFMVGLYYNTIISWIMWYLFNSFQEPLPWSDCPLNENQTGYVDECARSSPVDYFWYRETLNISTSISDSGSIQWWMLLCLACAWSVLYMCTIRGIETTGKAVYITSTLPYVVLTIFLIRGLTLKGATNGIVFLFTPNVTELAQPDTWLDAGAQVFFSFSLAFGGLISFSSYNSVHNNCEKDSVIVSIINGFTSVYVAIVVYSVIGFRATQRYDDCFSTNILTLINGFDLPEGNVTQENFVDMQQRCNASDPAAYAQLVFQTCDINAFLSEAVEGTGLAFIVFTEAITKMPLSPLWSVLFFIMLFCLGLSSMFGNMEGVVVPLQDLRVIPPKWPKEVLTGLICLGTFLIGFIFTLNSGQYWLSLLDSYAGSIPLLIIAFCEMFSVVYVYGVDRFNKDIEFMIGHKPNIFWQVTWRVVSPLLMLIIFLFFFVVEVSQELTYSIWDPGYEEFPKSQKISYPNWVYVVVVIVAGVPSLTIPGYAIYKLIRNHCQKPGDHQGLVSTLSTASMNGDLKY
T1 sequence (Q9HBJ8 15-222 partner): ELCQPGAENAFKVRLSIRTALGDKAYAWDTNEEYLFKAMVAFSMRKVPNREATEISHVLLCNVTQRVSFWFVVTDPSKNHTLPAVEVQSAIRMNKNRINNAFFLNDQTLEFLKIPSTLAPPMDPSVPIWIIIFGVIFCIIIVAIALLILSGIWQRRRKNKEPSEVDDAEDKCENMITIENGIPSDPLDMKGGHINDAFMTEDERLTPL
The test is described as follows: 13C6,15N-isoleucine uptake in CHO cells with doxycycline-inducible expression of human SLC6A19 and TMEM27, RapidFire mass spectrometry (Example B-2). It is filed as cell-based. To be noted: read-out: SLC6A19_RapidFire Uptake Assay IC50. The essentials: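 Read-out is RapidFire mass-spec peak area of 13C6,15N-isoleucine taken up over 20 min at 37 °C, after 20 min compound pre-exposure in pH 7.2 HEPES-buffered saline. Cells: doxycycline-induced CHO co-expressing human SLC6A19 and TMEM27; compounds as duplicate 10-point 2-fold dilutions, positive control setting 0% activity.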

Test [2] addresses T1, human SLC6A19 and TMEM27. The test is described as follows: Radiolabelled (3H) leucine uptake in CHO cells with doxycycline-inducible expression of human SLC6A19 and TMEM27 (Example B-1). It is filed as cell-based. As to conditions: CHO cells with doxycycline-inducible expression of human SLC6A19 and TMEM27, read-out: SLC6A19_Radioligand Uptake Assay IC50. The essentials:
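CHO cells were induced with doxycycline for 18 h at 37 °C, washed in HBSS, then exposed to compounds for 1 h: 8-point, 3-fold dilutions in duplicate, 0.5% DMSO final. Uptake measured by scintillation counting after 2 h shaking. Activity normalized with positive control as 0% and DMSO as 100%.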

With `Cc1cc(COc2cc3[nH]c(CNC(=O)C4(C)CC4)cc3cc2Cl)no1` [Compound 45, N-((5-chloro-6-((5-methylisoxazol-3-yl)methoxy)-1H-indol-2-yl)methyl)-1-methylcyclopropane-1-carboxamide], the values for the IC50 in test [1] and in test [2] were 75 nM and 180 nM, respectively.

For `CC1(C(=O)NCc2cc3cc(Cl)c(OCc4ccon4)cc3[nH]2)CC1` [Compound 46, N-((5-chloro-6-(isoxazol-3-ylmethoxy)-1H-indol-2-yl)methyl)-1-methylcyclopropane-1-carboxamide], the IC50 in test [1] came to 61 nM; in test [2], 70 nM.

Turning to `Cc1cc(COc2cc3[nH]c(CNC(=O)C4(C)CC4)cc3cc2C(F)(F)F)no1` [Compound 58, 1-methyl-N-((6-((5-methylisoxazol-3-yl)methoxy)-5-(trifluoromethyl)-1H-indol-2-yl)methyl)cyclopropanecarboxamide], the results for the IC50 in test [1] and in test [2] were 28 nM and 162 nM, respectively.

As to `CC1(C(=O)NCc2cc3cc(C(F)(F)F)c(OCc4ccon4)cc3[nH]2)CC1` [Compound 59, N-((6-(isoxazol-3-ylmethoxy)-5-(trifluoromethyl)-1H-indol-2-yl)methyl)-1-methylcyclopropane-1-carboxamide], the figures for the IC50 in test [1] and in test [2] were 153 nM and 214 nM, respectively.

On to `CC1(C(=O)NCc2cc3cc(C(F)(F)F)c(OCc4cscn4)cc3[nH]2)CC1` [Compound 60, 1-methyl-N-((6-(thiazol-4-ylmethoxy)-5-(trifluoromethyl)-1H-indol-2-yl)methyl)cyclopropane-1-carboxamide], for which the IC50 came to 71 nM in test [1] and 254 nM in test [2].

Regarding `Cc1cnc(COc2cc3[nH]c(CNC(=O)C4(C)CC4)cc3cc2Cl)s1` [Compound 63, N-((5-chloro-6-((5-methylthiazol-2-yl)methoxy)-1H-indol-2-yl)methyl)-1-methylcyclopropane-1-carboxamide], the IC50 in test [1] was found to be 56 nM; in test [2] it was 299 nM.

`CC1(C(=O)NCc2cc3cc(Cl)c(OCc4ccoc4)cc3[nH]2)CC1` [Compound 64, N-((5-chloro-6-(furan-3-ylmethoxy)-1H-indol-2-yl)methyl)-1-methylcyclopropane-1-carboxamide]: the values for the IC50 in test [1] and in test [2] were 24 nM and 78 nM, respectively.

With `CC1(C(=O)NCc2cc3cc(Cl)c(OCc4cccs4)cc3[nH]2)CC1` [Compound 65, N-((5-chloro-6-(thiophen-2-ylmethoxy)-1H-indol-2-yl)methyl)-1-methylcyclopropane-1-carboxamide], the results for the IC50 in test [1] and in test [2] were 46 nM and 152 nM, respectively.

On to `CC1(C(=O)NCc2cc3cc(Cl)c(OCc4ccco4)cc3[nH]2)CC1` [Compound 66, N-((5-chloro-6-(furan-2-ylmethoxy)-1H-indol-2-yl)methyl)-1-methylcyclopropane-1-carboxamide], for which the IC50 in test [1] stood at 27 nM; in test [2] it was 70 nM.

In the case of `CC1(C(=O)NCc2cc3cc(Cl)c(OCCc4cscn4)cc3[nH]2)CC1` [Compound 67, N-((5-chloro-6-(2-(thiazol-4-yl)ethoxy)-1H-indol-2-yl)methyl)-1-methylcyclopropane-1-carboxamide], the IC50 in test [1] turned out to be 117 nM; in test [2], 169 nM.

As to `CC1(C(=O)NCc2cc3ccc(OCc4cnsc4)cc3[nH]2)CC1` [Compound 68, N-((6-(isothiazol-4-ylmethoxy)-1H-indol-2-yl)methyl)-1-methylcyclopropane-1-carboxamide], the IC50 in test [1] stood at 117 nM; in test [2], 119 nM.

Consider `CC1(C(=O)NCc2cc3cc(Cl)c(OCc4cnsc4)cc3[nH]2)CC1` [Compound 69, N-((5-chloro-6-(isothiazol-4-ylmethoxy)-1H-indol-2-yl)methyl)-1-methylcyclopropane-1-carboxamide], for which the IC50 is 78 nM in test [1] and 148 nM in test [2].
